Reference: PubChem BioAssay AID1259407 (Chemical Carcinogenesis Research Information System (CCRIS), 2018)
Activity calls are given as the source filed them. How the calls were made is not given here.

System: CCRIS mutagenicity, Ames/micronucleus/aberration tests
Assay: CCRIS mutagenicity studies

Measured: mutagenic call

O=C(O)c1ccccc1
inactive: Test System: AMES SALMONELLA TYPHIMURIUM, Strain/Indicator: TA97, Metabolic Activation: HAMSTER, LIVER, S-9, AROCLOR 1254 (10 OR 30%), Method: PREINCUBATION inactive; negative | Test System: AMES SALMONELLA TYPHIMURIUM, Strain/Indicator: TA97, Metabolic Activation: NONE, Method: PREINCUBATION inactive; negative | Test System: AMES SALMONELLA TYPHIMURIUM, Strain/Indicator: TA97, Metabolic Activation: RAT, LIVER, S-9, AROCLOR 1254, Method: PREINCUBATION inactive; negative | Test System: AMES SALMONELLA TYPHIMURIUM, Strain/Indicator: TA97, Metabolic Activation: RAT,LIVER, S-9, AROCLOR 1254 (10 OR 30%), Method: PREINCUBATION inactive; negative | Test System: AMES SALMONELLA TYPHIMURIUM, Strain/Indicator: TA97A, Metabolic Activation: NONE, Method: PREINCUBATION inactive; negative | Test System: AMES SALMONELLA TYPHIMURIUM, Strain/Indicator: TA97A, Metabolic Activation: RAT, LIVER, S-9, AROCLOR 1254, Method: PREINCUBATION inactive; negative | Test System: AMES SALMONELLA TYPHIMURIUM, Strain/Indicator: TA98, Metabolic Activation: GUINEA PIG, LIVER, S-9, PCB, Method: PREINCUBATION inactive; negative | Test System: AMES SALMONELLA TYPHIMURIUM, Strain/Indicator: TA98, Metabolic Activation: HAMSTER, LIVER, S-9, AROCLOR 1254 (10 OR 30%), Method: PREINCUBATION inactive; negative | Test System: AMES SALMONELLA TYPHIMURIUM, Strain/Indicator: TA98, Metabolic Activation: HAMSTER, LIVER, S-9, PCB, Method: PREINCUBATION inactive; negative | Test System: AMES SALMONELLA TYPHIMURIUM, Strain/Indicator: TA98, Metabolic Activation: MOUSE, LIVER, S-9, PCB, Method: PREINCUBATION inactive; negative | Test System: AMES SALMONELLA TYPHIMURIUM, Strain/Indicator: TA98, Metabolic Activation: NONE, Method: PREINCUBATION inactive; negative | Test System: AMES SALMONELLA TYPHIMURIUM, Strain/Indicator: TA98, Metabolic Activation: NONE, Method: STANDARD PLATE inactive; negative | Test System: AMES SALMONELLA TYPHIMURIUM, Strain/Indicator: TA98, Metabolic Activation: RAT, LIVER, S-9, AROCLOR 1254 (10%), Method: PREINCUBATION inactive; negative | Test System: AMES SALMONELLA TYPHIMURIUM, Strain/Indicator: TA98, Metabolic Activation: RAT, LIVER, S-9, AROCLOR 1254 (30%), Method: PREINCUBATION inactive; negative | Test System: AMES SALMONELLA TYPHIMURIUM, Strain/Indicator: TA98, Metabolic Activation: RAT, LIVER, S-9, AROCLOR 1254, Method: STANDARD PLATE inactive; negative | Test System: AMES SALMONELLA TYPHIMURIUM, Strain/Indicator: TA98, Metabolic Activation: RAT, LIVER, S-9, PCB, Method: PREINCUBATION inactive; negative | Test System: AMES SALMONELLA TYPHIMURIUM, Strain/Indicator: TA100, Metabolic Activation: GUINEA PIG, LIVER, S-9, PCB, Method: PREINCUBATION inactive; negative | Test System: AMES SALMONELLA TYPHIMURIUM, Strain/Indicator: TA100, Metabolic Activation: HAMSTER, LIVER, S-9, AROCLOR 1254 (10 OR 30%), Method: PREINCUBATION inactive; negative | Test System: AMES SALMONELLA TYPHIMURIUM, Strain/Indicator: TA100, Metabolic Activation: HAMSTER, LIVER, S-9, PCB, Method: PREINCUBATION inactive; negative | Test System: AMES SALMONELLA TYPHIMURIUM, Strain/Indicator: TA100, Metabolic Activation: MOUSE, LIVER, S-9, PCB, Method: PREINCUBATION inactive; negative | Test System: AMES SALMONELLA TYPHIMURIUM, Strain/Indicator: TA100, Metabolic Activation: NONE, Method: PREINCUBATION inactive; negative | Test System: AMES SALMONELLA TYPHIMURIUM, Strain/Indicator: TA100, Metabolic Activation: NONE, Method: STANDARD PLATE inactive; negative | Test System: AMES SALMONELLA TYPHIMURIUM, Strain/Indicator: TA100, Metabolic Activation: RAT, LIVER, S-9, AROCLOR 1254 (10 OR 30%), Method: PREINCUBATION inactive; negative | Test System: AMES SALMONELLA TYPHIMURIUM, Strain/Indicator: TA100, Metabolic Activation: RAT, LIVER, S-9, AROCLOR 1254, Method: STANDARD PLATE inactive; negative | Test System: AMES SALMONELLA TYPHIMURIUM, Strain/Indicator: TA100, Metabolic Activation: RAT, LIVER, S-9, PCB, Method: PREINCUBATION inactive; negative | Test System: AMES SALMONELLA TYPHIMURIUM, Strain/Indicator: TA102, Metabolic Activation: NONE, Method: PREINCUBATION inactive; negative | Test System: AMES SALMONELLA TYPHIMURIUM, Strain/Indicator: TA102, Metabolic Activation: RAT, LIVER, S-9, AROCLOR 1254, Method: PREINCUBATION inactive; negative | Test System: AMES SALMONELLA TYPHIMURIUM, Strain/Indicator: TA1535, Metabolic Activation: HAMSTER, LIVER, S-9, AROCLOR 1254 (10 OR 30%), Method: PREINCUBATION inactive; negative | Test System: AMES SALMONELLA TYPHIMURIUM, Strain/Indicator: TA1535, Metabolic Activation: NONE, Method: PREINCUBATION inactive; negative | Test System: AMES SALMONELLA TYPHIMURIUM, Strain/Indicator: TA1535, Metabolic Activation: NONE, Method: STANDARD PLATE inactive; negative | Test System: AMES SALMONELLA TYPHIMURIUM, Strain/Indicator: TA1535, Metabolic Activation: RAT, LIVER, S-9, AROCLOR 1254 (10%), Method: PREINCUBATION inactive; negative | Test System: AMES SALMONELLA TYPHIMURIUM, Strain/Indicator: TA1535, Metabolic Activation: RAT, LIVER, S-9, AROCLOR 1254 (30%), Method: PREINCUBATION inactive; negative | Test System: AMES SALMONELLA TYPHIMURIUM, Strain/Indicator: TA1535, Metabolic Activation: RAT, LIVER, S-9, AROCLOR 1254, Method: STANDARD PLATE inactive; negative | Test System: AMES SALMONELLA TYPHIMURIUM, Strain/Indicator: TA1537, Metabolic Activation: HAMSTER, LIVER, S-9, AROCLOR 1254 (10 OR 30%), Method: PREINCUBATION inactive; negative | Test System: AMES SALMONELLA TYPHIMURIUM, Strain/Indicator: TA1537, Metabolic Activation: NONE, Method: PREINCUBATION inactive; negative | Test System: AMES SALMONELLA TYPHIMURIUM, Strain/Indicator: TA1537, Metabolic Activation: NONE, Method: STANDARD PLATE inactive; negative | Test System: AMES SALMONELLA TYPHIMURIUM, Strain/Indicator: TA1537, Metabolic Activation: RAT, LIVER, S-9, AROCLOR 1254 (10%), Method: PREINCUBATION inactive; negative | Test System: AMES SALMONELLA TYPHIMURIUM, Strain/Indicator: TA1537, Metabolic Activation: RAT, LIVER, S-9, AROCLOR 1254 (30%), Method: PREINCUBATION inactive; negative | Test System: AMES SALMONELLA TYPHIMURIUM, Strain/Indicator: TA1537, Metabolic Activation: RAT, LIVER, S-9, AROCLOR 1254, Method: STANDARD PLATE inactive; negative | Test System: AMES SALMONELLA TYPHIMURIUM, Strain/Indicator: TA1538, Metabolic Activation: NONE, Method: STANDARD PLATE inactive; negative | Test System: AMES SALMONELLA TYPHIMURIUM, Strain/Indicator: TA1538, Metabolic Activation: RAT, LIVER, S-9, AROCLOR 1254, Method: STANDARD PLATE inactive; negative | Test System: Ames Salmonella typhimurium, Strain/Indicator: TA98, Metabolic Activation: None, Method: Direct plate incorporation inactive; negative | Test System: Ames Salmonella typhimurium, Strain/Indicator: TA98, Metabolic Activation: Rat, liver, S-9, Aroclor 1254, Method: Direct plate incorporation inactive; negative | Test System: Ames Salmonella typhimurium, Strain/Indicator: TA100, Metabolic Activation: None, Method: Direct plate incorporation inactive; negative | Test System: Ames Salmonella typhimurium, Strain/Indicator: TA100, Metabolic Activation: Rat, liver, S-9, Aroclor 1254, Method: Direct plate incorporation inactive; negative | Test System: E. COLI, Strain/Indicator: WP2, Metabolic Activation: NONE, Method: STANDARD PLATE inactive; negative | Test System: E. COLI, Strain/Indicator: WP2, Metabolic Activation: RAT, LIVER, S-9, AROCLOR 1254, Method: STANDARD PLATE inactive; negative
